For the assay, the target named is Mu-type opioid receptor (Homo sapiens) (UniProt P35372). As to the kind of experiment: […] [35S]- GTPgammaS on Opioid receptor mu 1 in monkey brain membranes. It is filed as cell membranes. As to conditions: Cercopithecidae, Membrane, target entry is the homologue from another species. Background: GTPγS resists hydrolysis and so accumulates on activated G proteins.
Chain of Mu-type opioid receptor (Homo sapiens) (P35372 whole entry): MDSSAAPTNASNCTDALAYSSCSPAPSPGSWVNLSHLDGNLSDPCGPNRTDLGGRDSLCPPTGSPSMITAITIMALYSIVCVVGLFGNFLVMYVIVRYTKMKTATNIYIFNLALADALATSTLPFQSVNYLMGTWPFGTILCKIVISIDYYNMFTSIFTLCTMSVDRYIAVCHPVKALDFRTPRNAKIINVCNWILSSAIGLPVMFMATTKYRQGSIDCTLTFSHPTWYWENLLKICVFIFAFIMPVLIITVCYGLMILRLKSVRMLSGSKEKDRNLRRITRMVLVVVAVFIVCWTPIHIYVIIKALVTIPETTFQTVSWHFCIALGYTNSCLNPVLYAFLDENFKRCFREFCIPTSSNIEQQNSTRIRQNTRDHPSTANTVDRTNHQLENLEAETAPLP
`COc1ccc2c3c1O[C@H]1C(=O)CC[C@@]4(NC(=O)/C=C/c5ccc(Cl)cc5)[C@@H](C2)N(CC2CC2)CC[C@]314` registered a Ke of 6.37 nM.

`O=C(/C=C/c1ccc(Cl)cc1)NC12CCC(=O)C3Oc4cccc5c4[C@@]31CCN(CC1CC1)[C@@H]2C5` (stereo partly drawn) came in with a Ke of 0.28 nM.

`O=C(/C=C/c1ccc(Cl)cc1)N[C@@]12CCC(=O)[C@@H]3Oc4c(O)ccc5c4[C@@]31CCN(CC1CC1)[C@@H]2C5` gave a Ke of 0.37 nM.

The values are drawn from ChEMBL document CHEMBL1133634, “3-Deoxyclocinnamox: the first high-affinity, nonpeptide mu-opioid antagonist lacking a phenolic hydroxyl group” (J Med Chem, 2000).
